Results from US10562898B2, “Substituted benzenesulfonamides as inhibitors of alpha-4 beta-7 integrin activity” (EA PHARMA CO., LTD., priority 2016, dated 2020).

Molecular target: T1, T cell α4β7 integrin (Homo sapiens, UniProt P13612+P26010)
T1 construct: Blood samples were obtained from healthy volunteers' blood donation; endogenous in cells; host or cells: CD4-positive T cells in whole blood of healthy human volunteers
T1 sequence (P13612 34-1032): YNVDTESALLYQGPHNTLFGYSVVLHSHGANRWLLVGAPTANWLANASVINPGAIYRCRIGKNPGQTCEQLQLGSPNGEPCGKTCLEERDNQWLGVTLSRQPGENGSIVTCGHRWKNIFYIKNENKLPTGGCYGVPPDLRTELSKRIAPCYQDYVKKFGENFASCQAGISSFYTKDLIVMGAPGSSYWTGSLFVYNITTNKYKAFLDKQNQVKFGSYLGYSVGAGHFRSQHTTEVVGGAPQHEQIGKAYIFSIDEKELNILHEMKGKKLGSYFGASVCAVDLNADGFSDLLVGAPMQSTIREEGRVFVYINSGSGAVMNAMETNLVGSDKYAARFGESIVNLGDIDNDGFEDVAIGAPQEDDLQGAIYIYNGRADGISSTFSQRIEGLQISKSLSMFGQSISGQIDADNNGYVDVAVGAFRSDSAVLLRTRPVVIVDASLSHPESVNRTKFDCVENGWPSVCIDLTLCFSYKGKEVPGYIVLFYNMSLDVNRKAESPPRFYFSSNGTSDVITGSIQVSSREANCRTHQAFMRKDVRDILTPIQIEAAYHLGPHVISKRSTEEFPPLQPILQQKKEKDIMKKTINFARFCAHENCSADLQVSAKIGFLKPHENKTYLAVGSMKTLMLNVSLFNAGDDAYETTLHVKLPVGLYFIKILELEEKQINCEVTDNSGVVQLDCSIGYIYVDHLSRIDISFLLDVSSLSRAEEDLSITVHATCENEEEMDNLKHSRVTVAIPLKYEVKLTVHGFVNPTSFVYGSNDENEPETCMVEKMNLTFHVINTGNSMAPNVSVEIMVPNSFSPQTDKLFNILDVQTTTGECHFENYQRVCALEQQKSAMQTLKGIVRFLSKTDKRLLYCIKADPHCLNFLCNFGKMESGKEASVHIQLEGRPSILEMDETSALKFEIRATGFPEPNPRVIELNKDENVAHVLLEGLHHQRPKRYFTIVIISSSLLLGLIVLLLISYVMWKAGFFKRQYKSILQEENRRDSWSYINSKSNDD
T1 sequence (P26010 20-798): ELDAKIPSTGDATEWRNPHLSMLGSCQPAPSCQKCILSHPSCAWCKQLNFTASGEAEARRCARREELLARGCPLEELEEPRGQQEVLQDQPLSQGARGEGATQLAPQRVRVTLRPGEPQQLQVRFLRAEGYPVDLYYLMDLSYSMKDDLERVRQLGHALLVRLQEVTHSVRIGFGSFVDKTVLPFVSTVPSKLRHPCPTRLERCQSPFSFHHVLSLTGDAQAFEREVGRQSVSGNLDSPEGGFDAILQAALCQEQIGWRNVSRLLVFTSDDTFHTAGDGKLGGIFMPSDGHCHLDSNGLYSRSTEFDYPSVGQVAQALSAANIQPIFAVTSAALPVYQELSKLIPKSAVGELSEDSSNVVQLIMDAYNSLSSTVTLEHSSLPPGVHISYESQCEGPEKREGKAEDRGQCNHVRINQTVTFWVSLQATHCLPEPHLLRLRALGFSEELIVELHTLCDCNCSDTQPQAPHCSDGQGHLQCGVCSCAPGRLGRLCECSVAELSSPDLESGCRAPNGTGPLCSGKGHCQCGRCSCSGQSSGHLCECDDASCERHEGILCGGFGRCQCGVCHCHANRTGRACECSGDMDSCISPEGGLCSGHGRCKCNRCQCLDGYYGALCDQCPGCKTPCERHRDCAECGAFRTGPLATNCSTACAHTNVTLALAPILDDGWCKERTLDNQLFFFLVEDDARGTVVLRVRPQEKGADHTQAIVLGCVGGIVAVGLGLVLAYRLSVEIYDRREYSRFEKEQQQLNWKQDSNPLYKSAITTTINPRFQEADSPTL
Test: Mouse MAdCAM-1/α4β7 integrin binding inhibitory activity evaluation test in whole human blood
Assay type: cell-based
Details: recombinant mouse MAdCAM-1/Fc, CD4 positive cells, flow cytometry
Method: (4) Mouse MAdCAM-1/α4β7 Integrin Binding Inhibitory Activity Evaluation Test in Whole Human Blood
Each test substance was measured in terms of the binding inhibitory activity of T cell α4β7 integrin and MAdCAM-1 in human whole blood. Blood samples were obtained from healthy volunteers' blood donation.
A 4 mM MnCl2 solution and each of dilutions of various test substances were added to human whole blood, followed by incubation for 10 minutes. Recombinant mouse MAdCAM-1/Fc (R&D Systems, Inc.) at 10 μg/mL was added to the resultant, and each test sample taken in a total amount of 50 μL was incubated for 30 minutes. Then, 950 μL of Lyse/Fix (BD Biosciences) was added to allow hemolysis and fixation to proceed at 37° C. for 10 minutes. After centrifugation for 5 minutes, the supernatant was removed and 600 μL of a RPMI-1640 medium supplemented with 10% inactivated fetal bovine serum (hereinafter referred to as the medium) was added, followed by centrifugation for 5 minutes, removal of the supernatant, and then washing. After the test sample was washed again with the medium, Rat Anti-Mouse MAdCAM-1 antibody (Southern Biotech) at 0.625 μg/mL was added, followed by incubation for 30 minutes or more. After the test sample was washed with the medium, 50 μg/mL Goat Anti-Rat IgG (H+L) Antibody, FITC (Life Technologies) was added, followed by incubation for 30 minutes or more. After the test sample was washed with the medium, 10 μg/mL PE Rat Anti-Mouse CD4 (BD Pharmigen) was added, followed by incubation for 30 minutes or more. After the test sample was washed with the medium, a ratio of MAdCAM-1 positive cells to CD4 positive cells was measured by using flow cytometry.
From independent test results using different blood samples of two to three persons, a MAdCAM-1 binding inhibiting rate of each test substance at each of various concentrations was obtained under the setting in which, among wells containing no test substances, a well containing no ligand was scored at 100% inhibition and a well containing ligand was scored at 0% inhibition, and then a concentration IC50 which brought about 50% binding inhibition was calculated.

IC50	Compound
3.9 nM	Cn1c(=O)n(-c2ccc(C[C@H](NC(=O)c3cc(F)c(NS(=O)(=O)c4ccc(NC(=O)C(C)(C)C)cc4)cc3F)C(=O)O)cc2)c(=O)c2ccncc21 [Compound A1, (2S)-2-[[4-[[4-(2,2-dimethylpropanoylamino)phenyl]sulfonylamino]-2,5-difluoro-benzoyl]amino]-3-[4-(1-methyl-2,4-dioxo-pyrido[3,4-d]pyrimidin-3-yl)phenyl]propanoic acid]
1.3 nM	Cc1c(C)n(C)c(=O)n(-c2ccc(C[C@H](NC(=O)c3cc(F)c(NS(=O)(=O)c4ccc(NC(=O)C(C)(C)C)cc4)cc3F)C(=O)O)cc2)c1=O [Compound A8]
2.4 nM	Cn1c(=O)n(-c2ccc(C[C@H](NC(=O)c3cc(F)c(NS(=O)(=O)c4ccc(NC(=O)C(C)(C)C)cc4)cc3F)C(=O)O)cn2)c(=O)c2ccncc21 [Compound A26]
1.2 nM	Cc1c(C)n(C)c(=O)n(-c2ccc(C[C@H](NC(=O)c3cc(F)c(NS(=O)(=O)c4ccc(NC(=O)C(C)(C)C)cc4)cc3F)C(=O)O)cn2)c1=O [Compound A28]
1.9 nM	Cc1c(C)n(C)c(=O)n(-c2ccc(C[C@H](NC(=O)c3cc(F)c(NS(=O)(=O)c4ccc(NC(=O)C(C)(C)C)cn4)cc3F)C(=O)O)cn2)c1=O [Compound A32]
3.3 nM	Cc1cn(C)c(=O)n(-c2ccc(C[C@H](NC(=O)c3cc(F)c(NS(=O)(=O)c4ccc(NC(=O)C(C)(C)C)cc4)cc3F)C(=O)O)cc2)c1=O [Compound A37]
2.3 nM	Cn1c2c(c(=O)n(-c3ccc(C[C@H](NC(=O)c4cc(F)c(NS(=O)(=O)c5ccc(NC(=O)C(C)(C)C)cc5)cc4F)C(=O)O)cn3)c1=O)CCOC2 [Compound A40]
2.2 nM	Cn1ccc(=O)n(-c2ccc(C[C@H](NC(=O)c3cc(F)c(NS(=O)(=O)c4ccc(NC(=O)C(C)(C)C)cc4)cc3F)C(=O)O)cc2)c1=O [Compound A42]
1 nM	Cn1c2c(c(=O)n(-c3ccc(C[C@H](NC(=O)c4cc(F)c(NS(=O)(=O)c5ccc(NC(=O)C(C)(C)C)cc5)cc4F)C(=O)O)cn3)c1=O)COCC2 [Compound A44]
1.3 nM	Cc1cc(=O)n(-c2ccc(C[C@H](NC(=O)c3cc(F)c(NS(=O)(=O)c4ccc(NC(=O)C(C)(C)C)cc4)cc3F)C(=O)O)cn2)c(=O)n1C [Compound A45]
1.6 nM	Cc1cc(=O)n(-c2ccc(C[C@H](NC(=O)c3cc(F)c(NS(=O)(=O)c4ccc(NC(=O)C(C)(C)C)cc4)cc3F)C(=O)O)cc2)c(=O)n1C [Compound A46]
1.8 nM	Cn1ccc(=O)n(-c2ccc(C[C@H](NC(=O)c3cc(F)c(NS(=O)(=O)c4ccc(NC(=O)C(C)(C)C)cc4)cc3F)C(=O)O)cn2)c1=O [Compound A53]
1.3 nM	Cc1cn(C)c(=O)n(-c2ccc(C[C@H](NC(=O)c3cc(F)c(NS(=O)(=O)c4ccc(NC(=O)C(C)(C)C)cc4)cc3F)C(=O)O)cn2)c1=O [Compound A54]
